The structures appear in SMILES notation.

One test relates to NCI-H716 cells. The test can be described thus: GLP-1 release into culture medium of NCI-H716 cells. Format: cell-based. The following applies: 50 μM, FIG. 5. As for the experimental part:
NCI-H716 cells were cultured and treated with 50 μM hyocholic acid and hyocholic acid derivatives, and a reported TGR5 agonist INT-777, and the levels of GLP-1 in the cell culture medium were measured.
On to `C[C@H](CCC(=O)O)[C@H]1CC[C@H]2[C@@H]3[C@H](O)[C@H](O)[C@@H]4C[C@H](O)CC[C@]4(C)[C@H]3CC[C@]12C` [hyocholic acid], for which the “release of GLP-1 (level in cell culture medium)” value (“release” below) was “effectively promote the release of GLP-1”.

As for `C[C@H](C[C@H](C)C(=O)O)[C@H]1CCC2C3C(CC[C@@]21C)[C@@]1(C)CC[C@@H](O)CC1[C@@H](O)[C@H]3O` (stereo partly drawn) [ZN-1-102-1, (S)-23-methyl hyocholic acid], the “release” value was “superior to hyocholic acid and the existing TGR5 agonist INT-777”.

`CC[C@H]1[C@@H](O)[C@@H]2[C@H](C[C@H](O)[C@]3(C)[C@@H]([C@H](C)C[C@H](C)C(=O)O)CC[C@@H]23)[C@@]2(C)CC[C@@H](O)C[C@@H]12` [INT-777]: the “release” value is listed as “effectively promote the release of GLP-1”.

A further test deals with fat-induced obesity mouse model. The test can be described thus: High-fat diet induced obesity mouse model, triglyceride after 8 weeks of gavage. Format: in vivo, mice. The following applies: 50 mg/kg/day by gavage with high-fat diet for 8 weeks. As for the experimental part:
In the fat-induced obesity mouse model, hyocholic acid and hyodeoxycholic acid were administered by gavage at a dose of 50 mg/kg/day while feeding high-fat diet (HFD) for 8 weeks. […] The increase of hyocholic acid and hyodeoxycholic acid in mice can effectively improve the dyslipidemia in mice caused by high fat.
In the case of `C[C@H](CCC(=O)O)[C@H]1CC[C@H]2[C@@H]3[C@H](O)[C@H](O)[C@@H]4C[C@H](O)CC[C@]4(C)[C@H]3CC[C@]12C` [hyocholic acid], the “triglyceride levels versus simple high-fat diet group” value is listed as “significantly lower”.

As to `C[C@H](CCC(=O)O)[C@H]1CC[C@H]2[C@@H]3C[C@H](O)[C@@H]4C[C@H](O)CC[C@]4(C)[C@H]3CC[C@]12C` [hyodeoxycholic acid], the “triglyceride levels versus simple high-fat diet group” value was “significantly lower”.

The same test, now with this note: after 8 weeks of intervention; FIG. 2.
Consider `C[C@H](CCC(=O)O)[C@H]1CC[C@H]2[C@@H]3[C@H](O)[C@H](O)[C@@H]4C[C@H](O)CC[C@]4(C)[C@H]3CC[C@]12C` [hyocholic acid], for which the liver triglyceride result is on record as “significant decrease”.

For the molecule `C[C@H](CCC(=O)O)[C@H]1CC[C@H]2[C@@H]3C[C@H](O)[C@@H]4C[C@H](O)CC[C@]4(C)[C@H]3CC[C@]12C` [hyodeoxycholic acid], the liver triglyceride entry was “significant decrease”.

Staying with this test, now noted: after 8 weeks of intervention; FIG. 3.
Regarding `C[C@H](CCC(=O)O)[C@H]1CC[C@H]2[C@@H]3[C@H](O)[C@H](O)[C@@H]4C[C@H](O)CC[C@]4(C)[C@H]3CC[C@]12C` [hyocholic acid], the serum triglyceride entry is given as “significant decrease”.

In the case of `C[C@H](CCC(=O)O)[C@H]1CC[C@H]2[C@@H]3C[C@H](O)[C@@H]4C[C@H](O)CC[C@]4(C)[C@H]3CC[C@]12C` [hyodeoxycholic acid], the serum triglyceride result was “significant decrease”.

The test system of the next test is NCI-H716 and STC-1 cells. The test can be described thus: GLP-1 expression in enteroendocrine cell lines after 48 h bile acid treatment. The following applies: 50 μM, through the action of TGR5 and FXR, FIG. 6. In kind it is cell-based. As for the experimental part: NCI-H716 and STC-1 cells were treated with 50 μM hyocholic acid, hyodeoxycholic acid, taurohyodeoxycholic acid, glycohyodeoxycholic acid, taurohyocholic acid, glycohyocholic acid and 19 kinds of other bile acids for 48 hours. […] (a) GLP-1 transcription was measured using real-time PCR, see FIG. 6A. (b) GLP-1 secretion was measured using ELISA, see FIG. 6B. (c) NCI-H716 and STC-1 and TGR5 knockdown cells thereof were treated with 6 kinds of hyocholic acids for 24 h and intracellular GLP-1, p-CREB and total CREB were measured using western blotting. (d) FXR protein concentration in nuclear and cytoplasmic fractions ofNCI-H716 cells after 24 h treatment with 50 μM chenodeoxycholic acid or 5-cholic acid in the presence and absence of hyocholic acid. See FIG. 6E. * P<0.05, compared with the control.
For the molecule `C[C@H](CCC(=O)NCC(=O)O)[C@H]1CC[C@H]2[C@@H]3[C@H](O)[C@H](O)[C@@H]4C[C@H](O)CC[C@]4(C)[C@H]3CC[C@]12C` [glycohyocholic acid], the “upregulating GLP-1 protein expression in enteroendocrine cell lines” value (shortened to “upregulating GLP-1 protein expression”) is on record as “more effective than other bile acids”.

Consider `C[C@H](CCC(=O)O)[C@H]1CC[C@H]2[C@@H]3[C@H](O)[C@H](O)[C@@H]4C[C@H](O)CC[C@]4(C)[C@H]3CC[C@]12C` [hyocholic acid], for which the “upregulating GLP-1 protein expression” value was “more effective than other bile acids”.

Turning to `CC(CCC(=O)NCC(=O)O)C1CCC2C3CC(O)C4CC(O)CCC4(C)C3CCC12C` (stereo not drawn) [glycohyodeoxycholic acid], the “upregulating GLP-1 protein expression” value is listed as “more effective than other bile acids”.

For `C[C@H](CCC(=O)NCCS(=O)(=O)[O-])[C@H]1CC[C@H]2[C@@H]3C[C@H](O)[C@@H]4C[C@H](O)CC[C@]4(C)[C@H]3CC[C@]12C.[Na+]` [taurohyodeoxycholic acid], the “upregulating GLP-1 protein expression” value is listed as “more effective than other bile acids”.

Turning to `C[C@H](CCC(=O)O)[C@H]1CC[C@H]2[C@@H]3C[C@H](O)[C@@H]4C[C@H](O)CC[C@]4(C)[C@H]3CC[C@]12C` [hyodeoxycholic acid], the “upregulating GLP-1 protein expression” value is on record as “more effective than other bile acids”.

On to `C[C@H](CCC(=O)NCCS(=O)(=O)O)[C@H]1CC[C@H]2[C@@H]3[C@H](O)[C@H](O)[C@@H]4C[C@H](O)CC[C@]4(C)[C@H]3CC[C@]12C.[Na]` [taurohyocholic acid], for which the “upregulating GLP-1 protein expression” value was “more effective than other bile acids”.

The values are drawn from US12491190B2, “Bile acid derivative, composition and application thereof” (SHENZHEN YUNHE PHARMACEUTICAL TECHNOLOGY PARTNERSHIP …, priority 2019, dated 2025).
